We go through 7 molecules from PubChem BioAssay (NCI).

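The compound was tested at five concentrations on cells cultured in 96-well plates, with a 48-hour exposure period. TGI: total growth inhibition.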 Where only a bound is given, the exact number is not on record here.

Among the test systems are SF-295 CNS; M14 melanoma; NCI-H23 lung; UO-31 renal; BT-549 breast; OVCAR-8 ovarian; SK-OV-3 ovarian; SK-MEL-2 melanoma; LOX IMVI melanoma; ACHN renal; SK-MEL-28 melanoma; KM12 colon; SNB-75 CNS; UACC-257 melanoma; MCF7 breast; UACC-62 melanoma; SF-268 CNS; EKVX NSCLC; MOLT-4 leukemia.
What all share (assay): NCI anticancer screen, dose series, 48 h

With `CCOC(=O)c1ccc(-c2cccs2)n1C`, the TGI in the assay with SF-295 CNS, in the assay with M14 melanoma, with NCI-H23 lung, in the assay on UO-31 renal, with BT-549 breast and with OVCAR-8 ovarian was over 100 µM each time. The TGI in the assay with SK-OV-3 ovarian, in the assay with SK-MEL-2 melanoma, with LOX IMVI melanoma, with ACHN renal, with SK-MEL-28 melanoma and in the assay on KM12 colon was over 100 µM throughout. Besides, the TGI with SNB-75 CNS, in the assay with UACC-257 melanoma, with MCF7 breast, in the assay on UACC-62 melanoma, in the assay with SF-268 CNS and in the assay on EKVX NSCLC was over 100 µM each time. In the assay on MOLT-4 leukemia, the TGI was over 100 µM.
For `Cc1cc2c(cc1Cl)SC(NN(C)C)=NS2(=O)=O`, the TGI with SF-295 CNS, in the assay with M14 melanoma, with NCI-H23 lung, in the assay on BT-549 breast, in the assay on OVCAR-8 ovarian and in the assay with SK-OV-3 ovarian was over 10 µM throughout. In addition, the TGI in the assay with SK-MEL-2 melanoma, with LOX IMVI melanoma, in the assay on ACHN renal, in the assay with SK-MEL-28 melanoma, in the assay with KM12 colon and with SNB-75 CNS was over 10 µM in each case. Moreover, the TGI in the assay with UACC-257 melanoma, with MCF7 breast, in the assay with UACC-62 melanoma, in the assay on SF-268 CNS, in the assay with EKVX NSCLC and in the assay with MOLT-4 leukemia was over 10 µM throughout.
For the molecule `CCC(C#N)N(Cc1ccc(CN(C(=O)c2ccccc2)C(C#N)CC)cc1)C(=O)c1ccccc1` (stereo unspecified), the TGI in the assay on SF-295 CNS was over 100 µM; with M14 melanoma, over 100 µM; with NCI-H23 lung, over 100 µM; with UO-31 renal, 93.4 µM; in the assay with BT-549 breast, 72.7 µM; with OVCAR-8 ovarian, over 100 µM. The TGI is over 100 µM in the assay with SK-OV-3 ovarian; 56.8 µM in the assay with SK-MEL-2 melanoma; 31.4 µM in the assay on LOX IMVI melanoma; over 100 µM with ACHN renal; 67.7 µM with KM12 colon; 68.8 µM in the assay with SNB-75 CNS. Also, the TGI was 49 µM in the assay with UACC-257 melanoma; 93.6 µM with MCF7 breast; 60.1 µM with UACC-62 melanoma; over 100 µM in the assay on SF-268 CNS; 93.3 µM with EKVX NSCLC; 65 µM in the assay on MOLT-4 leukemia.
Consider `CCOC(=O)c1c(NS(=O)(=O)c2ccc(Br)cc2)sc2c1CCCC2`, for which the TGI was found to be 8.39 µM in the assay with SF-295 CNS; 9.92 µM in the assay on M14 melanoma; 18.7 µM with NCI-H23 lung; 15.7 µM in the assay with UO-31 renal; 19.4 µM in the assay on BT-549 breast; 15.3 µM in the assay on OVCAR-8 ovarian. For the same molecule, the TGI in the assay on SK-OV-3 ovarian is 50 µM; with SK-MEL-2 melanoma, 13.5 µM; in the assay on LOX IMVI melanoma, 27.3 µM; in the assay on ACHN renal it was 14.6 µM; in the assay with SK-MEL-28 melanoma it was 32.6 µM; in the assay on KM12 colon it was 18.2 µM. Moreover, the TGI with SNB-75 CNS is 12.4 µM; in the assay on UACC-257 melanoma it was 47.5 µM; with MCF7 breast it was over 62.9 µM; in the assay with UACC-62 melanoma it was 17.7 µM; in the assay on SF-268 CNS it was 10.9 µM; in the assay with EKVX NSCLC it was 11 µM. Also, the TGI with MOLT-4 leukemia came to 12.3 µM.
`COc1ccc(-c2cn3c(nc4ccccc43)c(C)n2)cc1`: the TGI with SF-295 CNS is over 100 µM; with M14 melanoma, over 100 µM; in the assay with NCI-H23 lung, over 100 µM; with UO-31 renal, over 64.6 µM; in the assay with BT-549 breast, over 100 µM; in the assay with OVCAR-8 ovarian, over 96.6 µM. Moreover, the TGI with SK-OV-3 ovarian is 39.2 µM; in the assay with SK-MEL-2 melanoma it was over 100 µM; with LOX IMVI melanoma, over 100 µM; in the assay with ACHN renal, over 100 µM; in the assay on SK-MEL-28 melanoma it was over 100 µM; in the assay on KM12 colon, over 100 µM. Moreover, the TGI in the assay on SNB-75 CNS was over 86.1 µM; with UACC-257 melanoma it was over 100 µM; with MCF7 breast it was over 100 µM; with UACC-62 melanoma, over 91.5 µM; with SF-268 CNS, over 100 µM; in the assay on EKVX NSCLC, over 100 µM. In addition, the TGI in the assay with MOLT-4 leukemia was over 100 µM.
In the case of `O=[N+]([O-])c1nccn1CCCN=c1c2ccccc2n(O)c2ccccc12`, the TGI in the assay with SF-295 CNS, with M14 melanoma, with NCI-H23 lung, in the assay with UO-31 renal, with BT-549 breast and in the assay on OVCAR-8 ovarian was over 100 µM throughout. Also, the TGI in the assay with SK-OV-3 ovarian, in the assay with SK-MEL-2 melanoma, in the assay with LOX IMVI melanoma, in the assay with ACHN renal, with SK-MEL-28 melanoma and in the assay on KM12 colon was over 100 µM each time. Further, the TGI in the assay with SNB-75 CNS, in the assay with UACC-257 melanoma, in the assay with MCF7 breast, in the assay with UACC-62 melanoma, in the assay with SF-268 CNS and in the assay on EKVX NSCLC was over 100 µM throughout. In the assay with MOLT-4 leukemia, this molecule displayed a TGI of over 100 µM.
As for `C/C=C/C=C/C1=NN(c2cccc(S(=O)(=O)O)c2)C2(C1)C(Cl)C(=O)N2c1nc2ccccc2s1` (stereo unspecified), the TGI is 31 µM in the assay with SF-295 CNS; 29.4 µM in the assay with M14 melanoma; 32.1 µM with NCI-H23 lung; 4.15 µM in the assay on UO-31 renal; 34 µM with BT-549 breast; over 54.8 µM in the assay on OVCAR-8 ovarian. Moreover, the TGI came to 33.9 µM with SK-OV-3 ovarian; 30.2 µM with SK-MEL-2 melanoma; 24.5 µM with LOX IMVI melanoma; 28.8 µM in the assay with ACHN renal; 43.6 µM with SK-MEL-28 melanoma; 27.3 µM in the assay on KM12 colon. Also, the TGI turned out to be 25.9 µM with SNB-75 CNS; 33.5 µM with UACC-257 melanoma; 27 µM in the assay with MCF7 breast; 26.2 µM in the assay with UACC-62 melanoma; 38.4 µM with SF-268 CNS; 35.6 µM in the assay on EKVX NSCLC. The molecule further displayed a TGI in the assay with MOLT-4 leukemia of over 68.5 µM.
